Test results from patent US6887889B2 (Pharmacopeia Drug Discovery, Inc., priority 2001, dated 2005).

These molecules were tested against T1, hMCHR (Homo sapiens, UniProt Q99705) (assay: MCH Assay PCOP Protocol: [125I]-MCH binding to hMCHR-CHO membranes, WGA-SPA beads). Conditions: hMCHR-CHO overexpressing membranes, 0.5 nM [125I]-MCH, 2 hours incubation.
T1 construct: host or cells: CHO (Chinese hamster ovary) cells, membranes
Method: A reaction mixture of 10 μg hMCHR-CHO overexpressing membranes (from Receptor Biology, Inc., Beltville, Md., or internally produced) and 100 μg/well WGA-SPA beads (from Amersham Pharmacia Biotech, Inc., Piscataway, N.J.)/100 μL was prepared in MCHR assay buffer (25 mM HEPES, pH 7.4, 10 mM NaCl, 10 mM MgCl2, 5 mM MnCl2, 0.1%BSA). […] The assay plates were shaken for 5 minutes on a plate shaker, then incubated for 2 hours before cpm/well were determined in a Microbeta Trilux counter (from Perkin Elmer Wallac, Inc., Gaithersburg, Md.).

T1 sequence (Q99705 whole entry): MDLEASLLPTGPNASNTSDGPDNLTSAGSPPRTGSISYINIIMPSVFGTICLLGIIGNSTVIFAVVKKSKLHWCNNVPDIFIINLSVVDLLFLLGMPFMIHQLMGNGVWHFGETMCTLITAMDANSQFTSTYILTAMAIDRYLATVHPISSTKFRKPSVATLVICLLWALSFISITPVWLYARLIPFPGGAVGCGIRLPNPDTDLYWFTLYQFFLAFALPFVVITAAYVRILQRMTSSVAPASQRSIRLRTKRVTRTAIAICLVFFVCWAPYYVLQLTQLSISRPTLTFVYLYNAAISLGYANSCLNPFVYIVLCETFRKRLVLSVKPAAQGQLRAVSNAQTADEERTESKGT

First: COCCN1CCC2(CC1)CN(C(=O)Nc1ccc(F)c(Cl)c1)c1ccc(-c3cccc(C#N)c3)cc12 [Example 86]
Second: COCCN1CCC(CNC(=O)Nc2ccc(F)c(Cl)c2)(c2ccc(-c3cccc(C#N)c3)cc2)CC1 [Example 90]
The Ki of the first is higher: 101 to 5500 nM for the first, 0.2 to 10 nM for the second.

`CN1CCC(CNC(=O)Cc2ccc(Cl)c(Cl)c2)(c2ccc(-c3cccc(C#N)c3)cc2)CC1` [Example 87] and `COCCN1CCC(CNC(=O)Nc2ccc(OC)c(Cl)c2)(c2ccc(-c3cccc(C#N)c3)cc2)CC1` [Example 95] fall in the same range of Ki: 11 to 100 nM for the first, 11 to 100 nM for the second.

First: COCCN1CCC(CN(C)C(=O)Nc2cc(Cl)cc(Cl)c2)(c2ccc(-c3cccc(C#N)c3)cc2)CC1 [Example 88]
Second: COCCN1CCC(CNCc2cc(Cl)cc(Cl)c2)(c2ccc(-c3cccc(C#N)c3)cc2)CC1 [Example 127]
The Ki of the first is lower: 0.2 to 10 nM for the first, 101 to 5500 nM for the second.

`COCCN1CCC(CNC(=O)Nc2cc(F)cc(C(F)(F)F)c2)(c2ccc(-c3cccc(C#N)c3)cc2)CC1` [Example 89] and `COCCN1CCC(CNC(=O)Nc2cc(F)cc(F)c2)(c2ccc(-c3cccc(C#N)c3)cc2)CC1` [Example 105] fall in the same range of Ki: 0.2 to 10 nM for the first, 0.2 to 10 nM for the second.

`COCCN1CCC(CNC(=O)Nc2ccc(F)c(F)c2)(c2ccc(-c3cccc(C#N)c3)cc2)CC1` [Example 91] and `COCCN1CCC(CNC(=O)Nc2ccc(Cl)c(C(F)(F)F)c2)(c2ccc(-c3cccc(C#N)c3)cc2)CC1` [Example 94] fall in the same range of Ki: 0.2 to 10 nM for the first, 0.2 to 10 nM for the second.

First: COCCN1CCC(CNC(=O)Nc2ccc3c(c2)OCO3)(c2ccc(-c3cccc(C#N)c3)cc2)CC1 [Example 92]
Second: CCCN1CCC(CNC(=O)Nc2ccc3c(c2)OCO3)(c2ccc(-c3cccc(C#N)c3)cc2)CC1 [Example 101]
The Ki of the first is lower: 0.2 to 10 nM for the first, 11 to 100 nM for the second. The first binds more tightly here.

Compared with `COCCN1CCC(CNC(=O)Nc2cc(Cl)cc(Cl)c2)(c2ccc(-c3cccc(CO)c3)cc2)CC1` [Example 93], `CCCCN1CCC(CNC(=O)Nc2cc(Cl)cc(Cl)c2)(c2ccc(-c3cccc(Cl)c3)cc2)CC1` [Example 113] is higher in Ki: 0.2 to 10 nM for the first, 11 to 100 nM for the second.

`N#Cc1cccc(-c2ccc(C3(CNC(=O)Nc4cc(F)cc(F)c4)CCN(CC4CC4)CC3)cc2)c1` [Example 96] and `CCCN1CCC(CNC(=O)Nc2cc(F)cc(F)c2)(c2ccc(-c3cccc(C#N)c3)cc2)CC1` [Example 102] fall in the same range of Ki: 0.2 to 10 nM for the first, 0.2 to 10 nM for the second.

`CN(CC1(c2ccc(-c3cccc(C#N)c3)cc2)CCN(CC2CC2)CC1)C(=O)Nc1cc(F)cc(F)c1` [Example 97] and `CN(CC1(c2ccc(-c3cccc(C#N)c3)cc2)CCN(CC2CC2)CC1)C(=O)Nc1ccc(F)c(Cl)c1` [Example 99] fall in the same range of Ki: 11 to 100 nM for the first, 11 to 100 nM for the second.

First: N#Cc1cccc(-c2ccc(C3(CNC(=O)Nc4ccc5c(c4)OCO5)CCN(CC4CC4)CC3)cc2)c1 [Example 98]
Second: N#Cc1cccc(-c2ccc(C3(CNC(=O)Nc4ccc(F)c(C(F)(F)F)c4)CCN(CC4CC4)CC3)cc2)c1 [Example 100]
The Ki of the first is higher: 11 to 100 nM for the first, 0.2 to 10 nM for the second. The second binds more tightly here.

`CCCN1CCC(CNC(=O)Nc2ccc(F)c(C(F)(F)F)c2)(c2ccc(-c3cccc(C#N)c3)cc2)CC1` [Example 103] and `N#Cc1cccc(-c2ccc(C3(CNC(=O)Nc4ccc(F)c(Cl)c4)CCN(CCC(F)(F)F)CC3)cc2)c1` [Example 117] fall in the same range of Ki: 0.2 to 10 nM for the first, 0.2 to 10 nM for the second.

Compared with `CN(CC1(c2ccc(-c3cccc(C#N)c3)cc2)CCN(CC2CC2)CC1)C(=O)Nc1ccc(Cl)c(C(F)(F)F)c1` [Example 104], `N#Cc1cccc(-c2ccc(C3(CNC(=O)Nc4cc(Cl)cc(Cl)c4)CCN(CCC(F)(F)F)CC3)cc2)c1` [Example 118] is lower in Ki: 11 to 100 nM for the first, 0.2 to 10 nM for the second. The second binds more tightly here.

First: O=C(NCC1(c2ccc(-c3cccc(Cl)c3)cc2)CCN(C2CCC2)CC1)Nc1cc(Cl)cc(Cl)c1 [Example 107]
Second: O=C(NCC1(c2ccc(-c3cccc(Cl)c3)cc2)CCN(C2CCCCC2)CC1)Nc1cc(Cl)cc(Cl)c1 [Example 120]
The Ki of the first is higher: 101 to 5500 nM for the first, 0.2 to 10 nM for the second.

First: N#Cc1cccc(-c2ccc(C3(CNC(=O)Nc4cc(Cl)cc(Cl)c4)CCN(C4CCOCC4)CC3)cc2)c1 [Example 109]
Second: O=C(NCC1(c2ccc(-c3cccc(Cl)c3)cc2)CCN(C2CCOCC2)CC1)Nc1cc(Cl)cc(Cl)c1 [Example 114]
The Ki of the first is lower: 0.2 to 10 nM for the first, 101 to 5500 nM for the second.

First: CC(=O)Nc1cccc(-c2ccc(C3(CNC(=O)Nc4cc(Cl)cc(Cl)c4)CCN(C4CCOCC4)CC3)cc2)c1 [Example 110]
Second: CC(=O)Nc1cccc(-c2ccc(C3(CNC(=O)Nc4cc(Cl)cc(Cl)c4)CCN(C4CCCCC4)CC3)cc2)c1 [Example 122]
The Ki of the first is higher: 11 to 100 nM for the first, 0.2 to 10 nM for the second.

`CC(C)CN1CCC(CNC(=O)Nc2cc(Cl)cc(Cl)c2)(c2ccc(-c3cccc(Cl)c3)cc2)CC1` [Example 112] and `CCN1CCC(CNC(=O)Nc2cc(Cl)cc(Cl)c2)(c2ccc(-c3cccc(Cl)c3)cc2)CC1` [Example 121] fall in the same range of Ki: 11 to 100 nM for the first, 11 to 100 nM for the second.

`CCN1CCC(CNC(=O)Nc2cc(Cl)cc(Cl)c2)(c2ccc(-c3cccc(OC(F)(F)F)c3)cc2)CC1` [Example 123] and `CCCNCC1(c2ccc(-c3cccc(C#N)c3)cc2)CCN(C(=O)Nc2cc(Cl)cc(Cl)c2)CC1` [Example 134] fall in the same range of Ki: 11 to 100 nM for the first, 11 to 100 nM for the second.

`O=C(Nc1cc(Cl)cc(Cl)c1)N1CCC(CNCC2CC2)(c2ccc(-c3ccc4c(c3)OCO4)cc2)CC1` [Example 125] and `O=C(Nc1cc(Cl)cc(Cl)c1)N1CCC(CN(CC2CC2)CC2CC2)(c2ccc(-c3ccc4c(c3)OCO4)cc2)CC1` [Example 132] fall in the same range of Ki: 101 to 5500 nM for the first, 101 to 5500 nM for the second.

`O=C(Nc1cc(Cl)cc(Cl)c1)N1CCC(CN(CC2CC2)CC2CC2)(c2ccc(-c3cccc(Cl)c3)cc2)CC1` [Example 126] and `N#Cc1cccc(-c2ccc(C3(CN(CC4CC4)CC4CC4)CCN(C(=O)Nc4cc(Cl)cc(Cl)c4)CC3)cc2)c1` [Example 130] fall in the same range of Ki: 101 to 5500 nM for the first, 101 to 5500 nM for the second.

First: O=C(Nc1cc(Cl)cc(Cl)c1)N1CCC(CNCC2CC2)(c2ccc(-c3cccc(Cl)c3)cc2)CC1 [Example 128]
Second: N#Cc1cccc(-c2ccc(C3(CNCC4CC4)CCN(C(=O)Nc4cc(Cl)cc(Cl)c4)CC3)cc2)c1 [Example 131]
The Ki of the first is higher: 101 to 5500 nM for the first, 11 to 100 nM for the second.

`COCCN1CCC(CNCc2cc(Cl)cc(Cl)c2)(c2ccc(-c3cccc(Cl)c3)cc2)CC1` [Example 129] and `COCCN1CCC(CNCc2cc(Cl)cc(Cl)c2)(c2ccc(-c3cccc(NC(C)=O)c3)cc2)CC1` [Example 135] fall in the same range of Ki: 101 to 5500 nM for the first, 101 to 5500 nM for the second.

Work on `CCCN(CCC)CC1(c2ccc(-c3cccc(C#N)c3)cc2)CCN(C(=O)Nc2cc(Cl)cc(Cl)c2)CC1` [Example 133] yielded a Ki of 101 to 5500 nM.
